Laboratory results taken from US6169181A, “Compounds useful to treat retroviral infections” (Pharmacia & Upjohn Company, priority 1998, dated 2001).
Several values for one entry are separate records, joined by “and”; a condition that tells them apart may be missing. Equal values may be shown once. Read-outs that look alike come from different tables or passages of the source.

Tests used:
[1] = target: T1, single chain tethered (tandem) HIV protease (HIV-1 M:B_HXB2R, UniProt P04585); assay: Tandem HIV protease assay; format: biochemical; conditions: read-out: FITC KI; Table II; enzyme HIV1TANDEM
T1 construct: purified enzyme, FITC/biotin substrate assay
Procedure: In the enzyme inhibition assay described above, the sensitivity of Ki value determination is in part limited by the ability to continue to lower the enzyme concentration for compounds with high binding affinity. To prevent de-dimerization at low enzyme concentration, a tandemly linked enzyme is prepared in which the two monomers are covalently linked by an appropriate stretch of amino acid residues. Using the latter enzyme, the sensitivity of the inhibition assay is improved since much lower enzyme concentration can be utilized, as compared to the condition using the wild-type enzyme.
The starting inhibitor concentrations are determined based on preliminary enzyme inhibition screening results which estimate the expected potency of the inhibitor. Inhibitor concentrations are then prepared using the Biomek 1000 (Beckman) and the Quadra 96 (Tomtec). Substrate (biotinylated at the amino terminal arginine and fluorescently labeled with fluorescein at the carboxyl terminal lysine), inhibitor and the tandem enzyme are allowed to react in solution at pH 5.5 (buffers identical to those used with the native dimeric enzyme) in the dark for 96 hours. Streptavidin coated polystyrene beads are added to stop the reaction. The labeled cleavage product is separated from unreacted substrate via filtration. Residual fluorescence is quantitated with the Idexx SM2000 (Idexx) and the resulting data are analyzed using the NLLSF program.

[2] = target: HIV-1 protease (Human immunodeficiency virus type 1 group M subtype B, UniProt P04585); assay: biochemical
Outline: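 Percent inhibition came from fluorescence of FITC-tagged cleavage product, separated by filtration from uncleaved substrate captured on streptavidin-coated beads. The enzyme (10 μl of 0.1 μM) and compound acted on a biotin/FITC dual-labelled peptide for one hour at room temperature in the dark. The reaction ran in 0.1 M sodium acetate, pH 5.5, with 1.0 M NaCl and 0.05% NP-40.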

[3] = Table II, enzyme HIV-1, DOSE 0.123 (unit not given)
[4] = Table II, enzyme HIV-1, DOSE 0.370 (unit not given)
[5] = Table II, enzyme HIV-1, DOSE 1.100 (unit not given)
[6] = Table II, enzyme HIV-1, DOSE 3.300 (unit not given)
[7] = Table II, enzyme HIV-1, DOSE 10.000 (unit not given)
[8] = Table II, enzyme HIV-1, DOSE 30.000 (unit not given)

Row | Compound | Ki [1] [nM] | PROTEASE % INHIB. [2] | PROTEASE % INHIB. [2, 3] [%] | PROTEASE % INHIB. [2, 4] [%] | PROTEASE % INHIB. [2, 5] [%] | PROTEASE % INHIB. [2, 6] [%] | PROTEASE % INHIB. [2, 7] [%] | PROTEASE % INHIB. [2, 8] [%]
1 | CCC[C@@]1(CCc2ccccc2)CC(O)=C([C@@H](c2cccc(NS(=O)(=O)c3ccc(C#N)cn3)c2)C(C)(C)C)C(=O)O1 (single isomer, unassigned) [Example 300, 5-Cyano-N-[3(R or S)-(1-[5,6-dihydro-4-hydroxy-2-oxo-6(R or S)-(2-phenylethyl)-6-propyl-2H-pyran-3-yl]-2,2-dimethylpropyl)-phenyl]-2-pyridinesulfonamide] | 0.1 | 90.61 and 99.05 and 111.45 and 109.19 and 105.56 and 104.91 |  |  |  |  |  | 
2 | CCC[C@]1(CCc2ccccc2)CC(O)=C([C@H](CC)c2cccc(NS(=O)(=O)c3ccc(C#N)cn3)c2)C(=O)O1 (single isomer, unassigned) [Example 336, N-[3-{1(R or S)-(4-Hydroxy-5,6-dihydro-2-oxo-6(S or R)-phenethyl-6-propyl-2H-pyran-3-yl)propyl}phenyl]-5-cyanopyridine-2-sulfonamide] | 0.032 | 65.64 and 112 and 89.54 and 88.06 and 77.12 and 62.28 |  |  |  |  |  | 
3 | CCCC1(CCC)CC(O)=C(C(c2cccc(NS(=O)(=O)c3cn(C)cn3)c2)C(C)(C)C)C(=O)O1 (single isomer, unassigned) [Example 319, N-[3(R or S)-(1-[5,6-Dihydro-6,6-dipropyl-4-hydroxy-2-oxo-2H-pyran-3-yl]-2,2-dimethylpropyl)-phenyl]-1-methyl-1H-imidazole-4-sulfonamide] | 29.5 |  | 10.75 | 32.65 | 60.14 | 75.86 | 93.46 | 74.48
4 | CCCC1(CCC)CC(O)=C(C(c2cccc(NS(=O)(=O)c3cn(C)cn3)c2)C(C)(C)C)C(=O)O1 (single isomer, unassigned) [Example 318, N-[3(R or S)-(1-[5,6-Dihydro-6,6-dipropyl-4-hydroxy-2-oxo-2H-pyran-3-yl]-2,2-dimethylpropyl)-phenyl]-1-methyl-1H-imidazole-4-sulfonamide] | 0.019 |  | 98.06 | 106.35 | 101.88 | 88.73 | 94.49 | 82.83
5 | CC(C)CC1(CC(C)C)CC(O)=C(C(c2cccc(NS(=O)(=O)c3ccc(C#N)cn3)c2)C(C)(C)C)C(=O)O1 (racemic) [Example 306, 5-Cyano-N-[3-(1-[5,6-dihydro-6,6-diisobutyl-4-hydroxy-2-oxo-2H-pyran-3-yl]-2,2-dimethylpropyl)-phenyl]-2-pyridinesulfonamide] | 0.04 |  | 71.79 | 82.71 | 89.3 | 97.29 | 82.59 | 53.43
6 | CCCC1(CCC)CC(O)=C(C(c2cccc(NS(=O)(=O)c3ccc(C(F)(F)F)cn3)c2)C(C)(C)C)C(=O)O1 (single isomer, unassigned) [Example 285, 5-Trifluoromethyl-N-[3-(R or S)-[1-[4-hydroxy-2-oxo-6,6-di-n-propyl-5,6-dihydro-2H-pyran-3-yl]-2,2-dimethylpropyl]-phenyl]-2-pyridinesulfonamide] | 0.015 |  | 81.8 | 95.8 | 99.11 | 109.33 | 104.61 | 86.84
7 | Cn1cnc(S(=O)(=O)Nc2cccc(C(C3=C(O)CC(CCc4ccccc4)(CCC(F)(F)F)OC3=O)C(C)(C)C)c2)c1 (single isomer, unassigned) [Example 273, N-[3-(R or S)-[1-[5,6-dihydro-4-hydroxy-2-oxo-6-(R or S)-(2-phenethyl)-6-(3,3,3-trifluoropropyl)-2H-pyran-3-yl]-2,2-dimethylpropyl]phenyl]-1-methyl-1H-imidazole-4-sulfonamide] | 2.3 |  | < 10 | 23.24 | 75.38 | 94.63 | 95.93 | 91
8 | CCC[C@]1(CCc2ccccc2)CC(O)=C([C@@H](CC)c2cccc(NS(=O)(=O)c3cn(C)cn3)c2)C(=O)O1 (single isomer, unassigned) [Example 342, N-[3-{1(S or R)-(4-Hydroxy-5,6-dihydro-2-oxo-6(S or R)-phenethyl-6-propyl-2H-pyran-3-yl)propyl}phenyl]-1-methyl-1H-imidazole-4-sulfonamide] | 0.309 | 81.06 and 93.18 and 96.94 and 85.55 and 73.55 and 73.95 |  |  |  |  |  | 
9 | CCC[C@@]1(CCc2ccc(F)cc2)CC(O)=C([C@H](c2cccc(NS(=O)(=O)c3ccc(C#N)cn3)c2)C(C)(C)C)C(=O)O1 (single isomer, unassigned) [Example 347, N-[3-{1(S or R)-(4-Hydroxy-5,6-dihydro-2-oxo-6(R or S)-(2-(4-fluorophenyl)ethyl)-6-propyl-2H-pyran-3-yl)-2,2-dimethyl-propyl}phenyl]-5-cyanopyridine-2-sulfonamide] | 13.6 |  | 20.99 | 50.82 | 71.4 | 83 | 90.97 | 87.18
10 | CCC[C@@]1(CCc2ccccc2)CC(O)=C([C@H](CC)c2cccc(NS(=O)(=O)c3ccc(N)cn3)c2)C(=O)O1 (single isomer, unassigned) [Example 314, 5-Amino-N-[3(R or S)-(1-[5,6-dihydro-4-hydroxy-2-oxo-6(R or S)-(2-phenylethyl)-6-propyl-2H-pyran-3-yl]propyl)phenyl]-2-pyridinesulfonamide] | 0.7 |  | 82.92 | 96.14 | 114.86 | 100.76 | 88.75 | 73.42
11 | Cn1cnc(S(=O)(=O)Nc2cccc(C(C3=C(O)CC(CCc4ccccc4)(CCC(F)(F)F)OC3=O)C(C)(C)C)c2)c1 (single isomer, unassigned) [Example 276, N-[3-(R or S)-[1-[5,6-dihydro-4-hydroxy-2-oxo-6-(R or S)-(2-phenethyl)-6-(3,3,3-trifluoropropyl)-2H-pyran-3-yl]-2,2-dimethylpropyl]phenyl]-1-methyl-1H-imidazole-4-sulfonamide] | 33 |  | 16.49 | 38.95 | 66.1 | 90.01 | 90.97 | 87.6
12 | CCCC1(CCC)CC(O)=C(C(CC)c2cccc(NS(=O)(=O)c3ccc(C(N)=O)cn3)c2)C(=O)O1 (centres unmarked) [Example 334, N-[3-{1-(4-Hydroxy-5,6-dihydro-2-oxo-6,6-dipropyl-2H-pyran-3-yl)propyl}phenyl]-5-carbamoylpyridine-2-sulfonamide] | 0.45 |  | 93.49 | 90.25 | 94.57 | 102.47 | 97.61 | 96.3
13 | CCC[C@@]1(CCc2ccc(F)cc2)CC(O)=C([C@@H](c2cccc(NS(=O)(=O)c3ccc(N)cn3)c2)C(C)(C)C)C(=O)O1 (single isomer, unassigned) [Example 317, 5-Amino-N-[3(R or S)-(1-[6(R or S)-(2-[4-fluorophenyl]ethyl)-5,6-dihydro-4-hydroxy-2-oxo-6-propyl-2H-pyran-3-yl]-2,2-dimethyl-propyl)phenyl]-2-pyridine-sulfonamide] | 0.04 |  | 87.38 | 94.14 | 98.45 | 95.97 | 101.26 | 108.59
14 | CC(C)(C)C(C1=C(O)CC(CCc2ccccc2)(CCc2ccccc2)OC1=O)c1cccc(NS(=O)(=O)c2ccc(N)cn2)c1 (single isomer, unassigned) [Example 356, N-[3-{1(S or R)-(4-Hydroxy-5,6-dihydro-2-oxo-6,6-bis(2-phenyl-ethyl)-2H-pyran-3-yl)-2,2-dimethylpropyl}phenyl]-5-amino-pyridine-2-sulfonamide] | 1.1 |  | 54.96 | 71.75 | 90.19 | 92.28 | 100.22 | 95.16
